System: αVβ8 headpiece
Assay: Hydrogen-deuterium exchange MS, αVβ8 headpiece
Conditions: 2.20 µM αVβ8, 6.67 µM TGF-β1 ligand peptide; from KD
Protocol: Two microliters of αVβ6 and αVβ8 stock solutions (23 and 33 µM, respectively), either alone or mixed with 100 µM TGF-β1 ligand peptide, were diluted 15-fold (to 1.53 and 2.20 µM, αVβ6 and αVβ8, respectively, and 6.67 µM TGF-β1 ligand peptide) with labeling buffer (Supplementary Table 1) at 21 °C to initiate deuterium exchange. […] At time points from 10 s to 240 m, an aliquot was removed and an equal volume of quench buffer (Supplementary Table 1) was added to adjust the pH to 2.5. Each sample (46 pmol αVβ6 or 66 pmol αVβ8) was immediately subjected to liquid chromatography-mass spectrometry analysis as described in the next paragraphs and in our PRIDE submission (PXD014348). For binding experiments, protein and ligand were allowed to equilibrate for 20 min at 21 °C before deuterium labeling.
Deuterated and control samples were digested in solution with pepsin (10 mg/ml, Sigma P6887; Lot#SLBL1721V) for 5 min on ice, and then injected into an M-class Acquity UPLC with HDX technology (Waters)[32]. […]
Peptides were identified using PLGS 3.0.1 (Waters, 720001408EN) using six replicates of undeuterated αVβ6 and six replicates of undeuterated αVβ8. […] The relative amount of deuterium in each peptide was determined by subtracting the centroid mass of the undeuterated form of each peptide from the deuteratered form, at each time point, for each condition. […]

G^213RRGDLATIHG^223 [TGF-β1 ligand peptide]
predicted binding to integrin: 99.6%
